Measurements taken from PubChem BioAssay AID330 (DTP/NCI, 2004).
Values joined by “and” are separate entries in the source; they are usually repeats but may differ in a detail not shown here. Equal entries are not always repeated. Inconclusive results and toxic doses are left out. How the source made its calls: active means survival T/C of 150% or more; inactive means T/C below 125% in these data.

System: P388 leukemia ip, CD2F1 mice, survival T/C
Test: NCI In Vivo Anticancer Drug Screen. Data for tumor model P388 Leukemia (intraperitoneal) in CD2F1 (CDF1) mice
Details: endpoint: median survival time, higher = longer survival
Method in brief: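 Mice carrying the transplanted tumor received test compound or vehicle. Survival was recorded in each group, and the value is the treated-group measurement divided by that of the vehicle-treated control group.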

[1] = dose: 30.0 mg/kg/injection, schedule: Q01DX005 (ip), vehicle: Klucel (hydroxypropylcellulose) (HPC)
[2] = dose: 60.0 mg/kg/injection, schedule: Q01DX005 (ip), vehicle: Klucel (hydroxypropylcellulose) (HPC)
[3] = dose: 200.0 mg/kg/injection, schedule: Q01DX005 (ip), vehicle: saline with Tween-80

Measured: T/C

COc1cc2c(cc1OC)C13CC(=O)N(C(C)=O)N1CCCN3C2=O (stereo not given)
inactive: [1] 106 % of control | [2] 97 % of control | dose: 120.0 mg/kg/injection, schedule: Q01DX005 (ip), vehicle: Klucel (hydroxypropylcellulose) (HPC) 91 % of control and 97 % of control | dose: 240.0 mg/kg/injection, schedule: Q01DX005 (ip), vehicle: Klucel (hydroxypropylcellulose) (HPC) 88 % of control

O=C(Cc1ccc(C2=NCCN2)cc1[N+](=O)[O-])c1ccc(C2=NCCN2)cc1
inactive: dose: 0.39 mg/kg/injection, schedule: Q01DX005 (ip), vehicle: saline 97 % of control | dose: 0.79 mg/kg/injection, schedule: Q01DX005 (ip), vehicle: saline 101 % of control | dose: 1.56 mg/kg/injection, schedule: Q01DX005 (ip), vehicle: saline 101 % of control and 87 % of control | dose: 6.25 mg/kg/injection, schedule: Q01DX005 (ip), vehicle: saline 106 % of control and 87 % of control

CCCCCCCCCCCCCCCCCC(=O)[O][Hg][c]1ccccc1
inactive: dose: 2.5 mg/kg/injection, schedule: Q04DX003 (ip), vehicle: Klucel (hydroxypropylcellulose) (HPC) 100 % of control | dose: 5.0 mg/kg/injection, schedule: Q04DX003 (ip), vehicle: Klucel (hydroxypropylcellulose) (HPC) 100 % of control | dose: 10.0 mg/kg/injection, schedule: Q04DX003 (ip), vehicle: Klucel (hydroxypropylcellulose) (HPC) 100 % of control

Cc1coc2c1[C@H]1OC(=O)C3=CCC[C@H](C2)[C@@]31C
inactive: dose: 7.5 mg/kg/injection, schedule: Q01DX009 (ip), vehicle: saline with Tween-80 100 % of control | dose: 15.0 mg/kg/injection, schedule: Q01DX009 (ip), vehicle: saline with Tween-80 100 % of control | dose: 30.0 mg/kg/injection, schedule: Q01DX009 (ip), vehicle: saline with Tween-80 101 % of control | dose: 60.0 mg/kg/injection, schedule: Q01DX009 (ip), vehicle: saline with Tween-80 98 % of control

COc1ccc(C(=O)Nc2c(O)ccc3ccccc23)cc1OC
inactive: dose: 50.0 mg/kg/injection, schedule: Q01DX005 (ip), vehicle: saline with Tween-80 101 % of control | dose: 100.0 mg/kg/injection, schedule: Q01DX005 (ip), vehicle: saline with Tween-80 97 % of control | [3] 100 % of control

CC1C(=O)OC2C1CCC1(C)C3(C)C(=O)C=CC213 (stereo not given)
inactive: dose: 15.0 mg/kg/injection, schedule: Q01DX005 (ip), vehicle: Klucel (hydroxypropylcellulose) (HPC) 97 % of control | [1] 101 % of control | [2] 104 % of control and 93 % of control

COc1ccc(C(=O)Cc2cc(OC)c(OC)cc2Br)cc1OC
inactive: dose: 100.0 mg/kg/injection, schedule: Q01DX001 (ip), vehicle: Klucel (hydroxypropylcellulose) (HPC) 93 % of control | dose: 200.0 mg/kg/injection, schedule: Q01DX001 (ip), vehicle: Klucel (hydroxypropylcellulose) (HPC) 101 % of control | [3] 86 % of control | dose: 400.0 mg/kg/injection, schedule: Q01DX001 (ip), vehicle: Klucel (hydroxypropylcellulose) (HPC) 99 % of control

CCN(CC)CCOC(=O)C(OCCOc1ccccc1)(c1ccccc1)c1ccccc1
inactive: dose: 50.0 mg/kg/injection, schedule: Q01DX005 (ip), vehicle: Klucel (hydroxypropylcellulose) (HPC) 117 % of control | dose: 100.0 mg/kg/injection, schedule: Q01DX005 (ip), vehicle: Klucel (hydroxypropylcellulose) (HPC) 117 % of control

COc1ccc(-c2c(N)cnc(C(=O)O)c2C)c(O)c1OC
inactive: dose: 12.5 mg/kg/injection, schedule: Q01DX009 (ip), vehicle: other 95 % of control | dose: 25.0 mg/kg/injection, schedule: Q01DX009 (ip), vehicle: other 104 % of control | dose: 50.0 mg/kg/injection, schedule: Q01DX009 (ip), vehicle: other 112 % of control | dose: 100.0 mg/kg/injection, schedule: Q01DX009 (ip), vehicle: other 95 % of control | dose: 200.0 mg/kg/injection, schedule: Q01DX009 (ip), vehicle: other 100 % of control

CC1(C)O[S+](c2ccccc2)c2ccccc21 (stereo not given)
inactive: dose: 50.0 mg/kg/injection, schedule: Q01DX009 (ip), vehicle: Klucel (hydroxypropylcellulose) (HPC) 102 % of control | dose: 100.0 mg/kg/injection, schedule: Q01DX009 (ip), vehicle: Klucel (hydroxypropylcellulose) (HPC) 107 % of control | dose: 200.0 mg/kg/injection, schedule: Q01DX009 (ip), vehicle: Klucel (hydroxypropylcellulose) (HPC) 108 % of control

CC(=O)Nc1ccc(S(=O)(=O)CC#N)cc1
inactive: dose: 50.0 mg/kg/injection, schedule: Q01DX009 (ip), vehicle: suspension in saline 87 % of control | dose: 100.0 mg/kg/injection, schedule: Q01DX009 (ip), vehicle: suspension in saline 93 % of control

COc1nc(N)c([N+](=O)[O-])c(C(Br)Br)n1
inactive: dose: 6.25 mg/kg/injection, schedule: Q01DX005 (ip), vehicle: Klucel (hydroxypropylcellulose) (HPC) 104 % of control | dose: 12.5 mg/kg/injection, schedule: Q01DX005 (ip), vehicle: Klucel (hydroxypropylcellulose) (HPC) 100 % of control | dose: 25.0 mg/kg/injection, schedule: Q01DX005 (ip), vehicle: Klucel (hydroxypropylcellulose) (HPC) 91 % of control
